From patent publication US20130095122A1, “Peptides or Antibodies Which Bind to Melanoma Inhibitory Activity (MIA) Protein” (priority 2010, published 2013)

Molecular target: T1, MIA-MIA interaction (MIA-Ru(bpy)3 / immobilized MIA-biotin) (Homo sapiens, UniProt Q16674)
T1 sequence (Q16674 25-131): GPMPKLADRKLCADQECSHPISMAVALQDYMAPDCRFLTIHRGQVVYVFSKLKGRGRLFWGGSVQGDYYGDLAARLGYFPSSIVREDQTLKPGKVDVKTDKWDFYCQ
Test: heterogeneous transition-metal based fluorescence polarization (HTFP) assay of MIA-MIA interaction
Assay type: binding
Settings: MIA-Ru(bpy)3 55 fM in wells coated with MIA-biotin
Method: This becomes particularly evident in a heterogeneous transition metal-based fluorescence polarization assay (HTFP assay), wherein the ratio P/P0 is measured. P is the fluorescence polarization signal of a MIA protein labeled with a transition metal complex in the presence of substrate bound MIA-protein and of the peptide or antibody to be tested. P0 is the fluorescence polarization signal of free MIA-protein labeled with said luminescent transition metal complex in the absence of substrate bound MIA-protein and in the absence of said peptide or antibody. In the absence of the peptide or antibody, usually, the labeled MIA-protein would interact with the substrate bound MIA-protein, which, in turn, would contribute to a reduction in rotational mobility of the labeled MIA-protein, and therefore, the fluorescence polarization signal would increase upon such interaction. If, additionally, a peptide or antibody is present that interferes with such interaction, no or little dimerization/aggregation occurs and no or little increase in fluorescence polarization signal would be detected. […]
All measurements were performed at RT on a Polarstar Optima microplate reader (BMG Labtech, Offenburg, Germany). […]

## Ac-FHWRYPLPLPGQ-NH2 [AR71, FHWRYPLPLPGQ]
  interference with MIA-MIA interaction (decrease in fluorescence polarization signal, P/P0): particularly potent in dissociating MIA dimers
